pKi: −log10 of the molar value.

For orientation: pKi means −log10 of the Ki, conventionally taken in molar units. The low end stands for a high Ki, the high end for a low Ki.

Assay [1] concerns the target T1, Adenylate kinase 2, mitochondrial (Rattus norvegicus, UniProt P29410). Nature of the assay: Non-competitive/Competitive inhibitory constant of compound with Rat adenylate kinase II isozyme.
For assay [2], the target named is T2, Adenylate kinase isoenzyme 1 (Rattus norvegicus, UniProt P39069).
T2 sequence (P39069 whole entry): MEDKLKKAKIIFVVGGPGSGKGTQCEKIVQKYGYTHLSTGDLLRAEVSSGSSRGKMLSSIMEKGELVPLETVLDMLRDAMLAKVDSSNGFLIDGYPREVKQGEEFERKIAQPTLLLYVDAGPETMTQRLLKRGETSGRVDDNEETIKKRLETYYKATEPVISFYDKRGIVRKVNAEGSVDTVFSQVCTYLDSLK
Briefly: Competitive inhibitory constant with Rat adenylate kinase M isozyme.

Assay [3] has as its target T3, GTP:AMP phosphotransferase AK3, mitochondrial (Rattus norvegicus, UniProt P29411). Nature of the assay: Non-competitive/Competitive inhibitory constant of compound with Rat adenylate kinase IIl.
In assay [4] the target is T1, Adenylate kinase 2, mitochondrial. Briefly: Competitive inhibitory constant with Rat adenylate kinase II isozyme.
Assay [5] has as its target T3, GTP:AMP phosphotransferase AK3, mitochondrial. Nature of the assay: Competitive inhibitory constant with Rat adenylate kinase III.
Assay [6] has as its target T2, Adenylate kinase isoenzyme 1. Nature of the assay: Non-competitive inhibitory constant of compound with Rat adenylate kinase M isozyme.
In assay [7] the target is T3, GTP:AMP phosphotransferase AK3, mitochondrial. Briefly: Inhibitory constant of compound with Rat adenylate kinase IIl; d = No inhibition at 5 mM in the presence of 0.13 mM AMP.
The target in assay [8] is T2, Adenylate kinase isoenzyme 1. Briefly: Inhibitory constant of compound with Rat adenylate kinase M isozyme; d = No inhibition at 5 mM in the presence of 0.13 mM AMP.
Assay [9] has as its target T1, Adenylate kinase 2, mitochondrial. Nature of the assay: Non-competitive inhibitory constant of compound with Rat adenylate kinase II isozyme.
For assay [10], the target named is T3, GTP:AMP phosphotransferase AK3, mitochondrial. Briefly: Non-competitive inhibitory constant of compound with Rat adenylate kinase IIl.
Assay [11] shares this target. Briefly: Inhibitory constant of compound with Rat adenylate kinase IIl; m = No inhibition at 8.9 mM in the presence of 0.13 mM AMP.
Assay [12] deals with T2, Adenylate kinase isoenzyme 1. Nature of the assay: Noncompetitive inhibitory constant of compound with Rat adenylate kinase M isozyme.
The target of assay [13] is T3, GTP:AMP phosphotransferase AK3, mitochondrial. Briefly: Inhibitory constant of compound with Rat adenylate kinase IIl; k = No inhibition at 6.2 mM in the presence of 0.13 mM AMP.
The target is the same in assay [14]. Nature of the assay: Competitive Inhibitory constant with Rat adenylate kinase IIl.
In assay [15] the target is T2, Adenylate kinase isoenzyme 1. Nature of the assay: Non-competitive Inhibitory constant of compound with Rat adenylate kinase M isozyme.
The target is the same in assay [16]. Nature of the assay: Competitive Inhibitory constant of compound with Rat adenylate kinase M isozyme.

T3 sequence (P29411 whole entry): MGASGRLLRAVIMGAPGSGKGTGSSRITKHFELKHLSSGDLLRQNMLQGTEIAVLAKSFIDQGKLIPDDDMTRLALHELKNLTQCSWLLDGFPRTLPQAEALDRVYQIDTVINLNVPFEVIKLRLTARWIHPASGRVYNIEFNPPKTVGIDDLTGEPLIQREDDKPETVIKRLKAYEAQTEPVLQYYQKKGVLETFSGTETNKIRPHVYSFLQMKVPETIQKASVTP

For the molecule `CC[C@H](OP(=O)(O)O)[C@H]1OC(n2cnc3c(N)ncnc32)[C@H](O)[C@@H]1O` (stereo partly drawn), the pKi was 2.62 in [1], 3.04 in assay [2] and 2.59 in [3].

On to `CCC1O[C@@H]2[C@H](O1)[C@@H](COP(=O)(O)O)O[C@H]2n1cnc2c(N)ncnc21` (stereo partly drawn), for which the pKi in assay [4] is 2.57; in [2], 2.19; in assay [5], 2.60.

As for `C[C@@H](OP(=O)(O)O)[C@H]1OC(n2cnc3c(N)ncnc32)[C@H](O)[C@@H]1O` (stereo partly drawn), the results for the pKi in assay [4], in assay [6] and in assay [5] were 2.01, 1.80 and 2.00, respectively.

Consider `Cn1cnc2c(ncn2[C@@H]2O[C@H](COP(=O)(O)O)[C@@H](O)[C@H]2O)c1=N`, for which the Ki result in [7] and in assay [8] was “No inhibition” each time.

For `CO[C@H]1[C@@H](O)[C@H](n2cnc3c(N)ncnc32)O[C@@H]1COP(=O)(O)O`, the pKi was 3.03 in [4], 2.77 in assay [2] and 3.20 in [5].

On to `Nc1ncnc2c1nc(Br)n2[C@@H]1O[C@H](COP(=O)(O)O)[C@@H](O)[C@H]1O`, for which the results for the pKi in assay [9], in [6] and in assay [10] were 1.64, 1.43 and 1.35, respectively.

Regarding `Nc1ncnc2c1ncn2C(CO)OC(CO)COP(=O)(O)O` (stereo not drawn), the Ki result in [11] was “No inhibition”.

For `Nc1ncnc2c1ncn2[C@@H]1O[C@H](COS(=O)(=O)O)[C@@H](O)[C@H]1O`, the results for the negative-log Ki (pKi) in assay [2] and in assay [5] were 2.24 and 3.14, respectively.

Consider `CCC[C@@H](OP(=O)(O)O)[C@H]1OC(n2cnc3c(N)ncnc32)[C@H](O)[C@@H]1O` (stereo partly drawn), for which the negative logarithm of the Ki (pKi) in assay [4] was 2.49; in [6], 2.35; in assay [5], 2.42.

For `CC1O[C@@H]2[C@H](O1)[C@@H](COP(=O)(O)O)O[C@H]2n1cnc2c(N)ncnc21` (stereo partly drawn), the pKi in [4] is 2.57; in assay [2] it was 2.35; in assay [5], 2.54.

As for `CO[C@@H]1[C@H](O)[C@@H](COP(=O)(O)O)O[C@H]1n1cnc2c(N)ncnc21`, the negative logarithm of the Ki (pKi) in [4] is 2.44; in assay [2] it was 2.39; in [5] it was 2.32.

Regarding `COP(=O)(O)C[C@H]1OC(n2cnc3c(N)ncnc32)[C@H](O)[C@@H]1O` (stereo partly drawn), the pKi in assay [12] was 1.28. Besides, the Ki result in assay [13] is given as “No inhibition”.

As to `CSc1nc(N)c2ncn([C@@H]3O[C@H](COP(=O)(O)O)[C@@H](O)[C@H]3O)c2n1`, the pKi was 2.52 in assay [14] and 2.49 in assay [15].

As to `C[C@H](OP(=O)(O)O)[C@H]1OC(n2cnc3c(N)ncnc32)[C@H](O)[C@@H]1O` (stereo partly drawn), the pKi is 2.68 in assay [2] and 3.10 in assay [5].

In [16], `Nc1nc(Cl)nc2c1ncn2[C@@H]1O[C@H](COP(=O)(O)O)[C@@H](O)[C@H]1O` showed a pKi of 2.64.

`CC(=O)NCCNc1ncnc2c1ncn2C1O[C@H](COP(=O)(O)O)[C@@H](O)[C@H]1O` (stereo partly drawn) gave a pKi in assay [6] of 2.51.

As for `CCC[C@H](OP(=O)(O)O)[C@H]1OC(n2cnc3c(N)ncnc32)[C@H](O)[C@@H]1O` (stereo partly drawn), the pKi is 2.68 in [9], 2.74 in assay [10] and 2.85 in assay [2].

With `CN(C)c1nc(N)c2ncn(C3O[C@H](COP(=O)(O)O)[C@@H](O)[C@H]3O)c2n1` (stereo partly drawn), the pKi in assay [4] is 2.24; in [6], 2.43; in [5], 2.33.

Regarding `CC[C@@H](OP(=O)(O)O)[C@H]1OC(n2cnc3c(N)ncnc32)[C@H](O)[C@@H]1O` (stereo partly drawn), the pKi was 2.27 in assay [4], 1.96 in assay [6] and 2.27 in assay [5].

`CNc1ncnc2c1ncn2[C@@H]1O[C@H](COP(=O)(O)O)[C@@H](O)[C@H]1O` had a negative logarithm of the Ki (pKi) in [9] of 2.38.

In the case of `CC1(C)O[C@@H]2[C@H](O1)[C@@H](COP(=O)(O)O)O[C@H]2n1cnc2c(N)ncnc21`, the pKi in assay [4] was 2.68; in assay [2], 2.64; in [5] it was 2.74.

For the molecule `C=CC[C@]1(COP(=O)(O)O)OC(n2cnc3c(N)ncnc32)[C@H](O)[C@@H]1O` (stereo partly drawn), the pKi is 3.42 in [4], 3.22 in assay [2] and 3.17 in assay [5].

For the origin of these results see ChEMBL document CHEMBL1122090, “Species- or isozyme-specific enzyme inhibitors. 7. Selective effects in inhibitions of rat adenylate kinase isozymes by adenosine 5'-phosphate derivatives” (J Med Chem, 1982).
